Counter-ions that a name gives are not always drawn.
Experiments:
[1] = test system: human blood plasma (clotting time); experiment: Measurement of Anticoagulant Activity (plasma clotting time, CT2); assay type: biochemical; settings: concentration which doubles the control clotting time, 37° C.
Experimental: Measurement of Anticoagulant Activity A blood plasma sample was prepared from human blood using a centrifuge. […] Thereafter, clotting time was measured using CLOTEC (Sanko Junyaku Co., Ltd.). A clotting time measured without adding a compound to be tested was used as a control, and a concentration of the test compound which doubles the control clotting time was calculated (hereinafter referred to as "CT2") as an index of the anticoagulant activity.

[2] = molecular target: human FXa (Homo sapiens, UniProt P00742); experiment: Measurement of Activated Blood Coagulation Factor X (FXa) Inhibition Activity; assay type: biochemical; settings: substrate S-2222, 37° C., 15 minutes
Experimental: Measurement of Activated Blood Coagulation Factor X (FXa) Inhibition Activity
A 180 μl portion of physiological saline solution containing a compound to be tested was mixed with 200 μl of Tris-HCl buffer (pH 8.4) and 100 μl of 1 mM S-2222 (KabiVitrum AB) aqueous solution, and the mixture was incubated at 37° C. 20 μl of Tris-HCl buffered saline (pH 7.45) containing 0.6 unit/ml of human FXa was added to the mixture. After 15 minutes of incubation at the same temperature, the reaction was stopped by adding 100 μl of 60% acetic acid, and absorbance of the reaction mixture was measured. A reaction mixture with no addition of a test compound was used as a blank, and another reaction mixture in which 60% acetic acid was added prior to the addition of FXa was used as a control.

[3] = molecular target: T1, thrombin (Bos taurus, UniProt P00735); experiment: Measurement of Thrombin Inhibition Activity; assay type: biochemical
T1 construct: thrombin (for topical application use, Sankyo Co., Ltd.); purchased Sankyo Co., Ltd
Experimental: Measurement of Thrombin Inhibition Activity
A 100 μl portion of Tris-HCl buffered saline (pH 7.45) (TBS) containing 6 mg/ml of fibrinogen (Type 1, Daiichi Pure Chemicals Co., Ltd.) was mixed with 100 μl of physiological saline solution. At 37° C., 100 μl of Tris-HCl buffered saline (pH 7.45) (TBS) containing varying amounts of thrombin (for topical application use, Sankyo Co., Ltd.) was added to the mixture prepared above to measure clotting time using CLOTEC (Sanko Junyaku Co., Ltd.) and to prepare a calibration curve.

[4] = test system: activated partial thromboplastin time (APTT); experiment: Measurement of Anticoagulant Activity in Oral Administration (APTT); assay type: in vivo, male STD:Wistar rat; settings: rat, 100 mg/kg
Experimental: Measurement of Anticoagulant Activity in Oral Administration
An aqueous solution of each compound to be tested was administered orally to each male STD:Wistar rat individual under an anesthetic, at a dose of 10 ml/kg body weight. Blood samples were collected periodically and blood plasma preparations were obtained from the samples to measure activated partial thromboplastin time (APTT). In the same manner, APTT was measured by administering pure water and used as a control. A test/control APTT ratio was calculated and used as an index of the anticoagulant activity.

[5] = Measurement of Solubility in Water
Experimental: A fixed amount of water was added to a varying amounts of each sample, and the mixture was agitated on a shaker at 25° C. for 10 minutes.

human FXa, sequence (P00742 235-488 limits assumed): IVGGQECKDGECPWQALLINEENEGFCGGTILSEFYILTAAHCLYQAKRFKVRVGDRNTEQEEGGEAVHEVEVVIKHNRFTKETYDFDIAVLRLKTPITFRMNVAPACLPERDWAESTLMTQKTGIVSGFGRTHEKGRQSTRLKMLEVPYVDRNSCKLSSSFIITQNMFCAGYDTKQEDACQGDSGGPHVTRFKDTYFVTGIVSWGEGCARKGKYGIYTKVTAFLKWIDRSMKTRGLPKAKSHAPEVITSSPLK
human FXa, sequence (P00742 41-179 limits assumed): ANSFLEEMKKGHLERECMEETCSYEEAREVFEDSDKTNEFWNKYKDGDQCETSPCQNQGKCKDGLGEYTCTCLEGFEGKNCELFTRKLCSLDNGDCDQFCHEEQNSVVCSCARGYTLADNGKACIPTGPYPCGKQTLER

SMILES	Anti-Coagulation CT2 [1] [µM]	IC50 [2] [nM]	IC50 [3] [µM]	Test/Control APTT Ratio ([4]; 0.5 hr)	Test/Control APTT Ratio ([4]; 1 hr)	Test/Control APTT Ratio ([4]; 2 hr)	Test/Control APTT Ratio ([4]; 4 hr)	solubility at 10 min [5] [mg/mL]
Cl.Cl.N=C(N)c1ccc2sc(CC(C(=O)O)c3ccc(O[C@H]4CCN(C(=N)C5CC5)C4)cc3)cc2c1 (stereo partly drawn) [Inventive Example 95, 3-(5-amidinobenzo[b]thien-2-yl)-2-[4-[((3S)-1-cyclopropanecarboximidoyl-3-pyrrolidinyl)oxy]phenyl]propionic Acid Dihydrochloride]	0.8	160	26	–	–	–	–	–
Cl.Cl.N=C(N)c1ccc2[nH]c(CC(C(=O)O)c3ccc(O[C@H]4CCNC4)cc3)cc2c1 (stereo partly drawn) [Inventive Example 68, 3-(5-amidino-2-indolyl)-2-[4-[((3S)-3-pyrrolidinyl)oxy]-phenyl]propionic acid Dihydrochloride]	1.45	170	190	–	–	–	–	–
Cl.Cl.N=C(N)c1ccc2cc(CC(C(=O)O)c3ccc(O[C@H]4CCNC4)cc3)[nH]c2c1 (single isomer, unassigned; (+)) [Inventive Example 48]	3	–	–	1.46	1.42	1.41	1.18	–
CCn1c(CC(C(=O)O)c2ccc(O[C@H]3CCNC3)cc2)cc2ccc(C(=N)N)cc21.Cl.Cl (stereo partly drawn) [Inventive Example 73, 3-(6-amidino-1-ethyl-2-indolyl)-2-[4-[((3S)-3-pyrrolidinyl)oxy]phenyl]propionic Acid Dihydrochloride]	–	–	–	–	–	–	–	≥ 450
CCn1c(CC(C(=O)O)c2ccc(OC3CCN(C(C)=N)CC3)cc2)cc2ccc(C(=N)N)cc21.Cl.Cl (stereo not shown) [Inventive Example 98, 2-[4-[(1-acetimidoyl-4-piperidinyl)oxy]phenyl]-3-(6-amidino-1-ethyl-2-indolyl)propionic Acid Dihydrochloride]	0.3	11	2.5	4.07	3.96	3.37	2.19	–
CC(=N)N1CCC(Oc2ccc(C(Cc3ccc4ccc(C(=N)N)cc4c3)C(=O)O)cc2)CC1.Cl.Cl (stereo not shown) [Inventive Example 108, 2-[4-[(1-acetimidoyl-4-piperidinyl)oxy]phenyl]-3-(7-amidino-2-naphthyl)propionic Acid Dihydrochloride]	0.3	18	250	2.12	2.18	1.69	1.39	≥ 350
Cl.Cl.N=C(N)c1ccc2oc(C(Cc3ccc(O[C@H]4CCNC4)cc3)C(=O)O)cc2c1 (stereo partly drawn) [Inventive Example 21, 2-(5-amidino-2-benzofuranyl)-3-[4-[((3S)-3-pyrrolidinyl)-oxy]phenyl]propionic Acid Dihydrochloride]	–	–	–	–	–	–	–	≥ 600
CC(=N)N1CCC(Oc2ccc(C(Cc3cc4cc(C(=N)N)ccc4s3)C(=O)O)cc2)CC1.Cl.Cl (stereo not shown) [Inventive Example 97, 2-[4-[(1-acetimidoyl-4-piperidinyl)oxy]phenyl]-3-(5-amidinobenzo[b]thien-2-yl)propionic acid Dihydrochloride]	0.23	45	170	–	–	–	–	–
CC(=N)N1CC[C@H](Oc2ccc(C(Cc3nc4cc(C(=N)N)ccc4s3)C(=O)O)cc2)C1.Cl.Cl (stereo partly drawn) [Inventive Example 89, 2-[4-[((3S)-1-acetimidoyl-3-pyrrolidinyl)oxy]phenyl]-3-(5-amidino-2-benzothiazolyl)propionic Acid Dihydrochloride]	5	600	> 600	1.24	1.22	1.17	1.14	–
CC(=N)N1CC[C@H](Oc2ccc(C(CC(=O)O)Cc3cc4cc(C(=N)N)ccc4s3)cc2)C1.Cl.Cl (stereo partly drawn) [Inventive Example 104, 3-[4-[((3S)-1-acetimidoyl-3-pyrrolidinyl)oxy]phenyl]4-(5-amidinobenzo[b]thien-2-yl)butyric Acid Dihydrochloride]	0.64	86	230	–	–	–	–	≥ 450
CCCCCC(=N)N1CC[C@H](Oc2ccc(C(Cc3cc4cc(C(=N)N)ccc4s3)C(=O)O)cc2)C1.Cl.Cl (stereo partly drawn) [Inventive Example 94, 3-(5-amidinobenzo[b]thien-2-yl)-2-[4-[((3S)-1-n-hexanimidoyl-3-pyrrolidinyl)oxy]phenyl]propionic Acid Dihydrochloride]	1.1	100	370	–	–	–	–	–
CC(=N)N1CC[C@H](Oc2ccc(CC(C(=O)O)c3cc4cc(C(=N)N)ccc4s3)cc2)C1 (stereo partly drawn) [Inventive Example 106, 3-[4-[((3S)-1-acetimidoyl-3-pyrrolidinyl)oxy]phenyl]-2-(5-amidinobenzo[b]thien-2-ylpropionic Acid Dihydrochloride]	2.3	560	100	–	–	–	–	–
CC(=N)N1CCC[C@H]1COc1ccc(C(Cc2cc3cc(C(=N)N)ccc3s2)C(=O)O)cc1.Cl.Cl (single isomer, unassigned; (+)) [Inventive Example 41, Dihydrochloride]	–	32	9	–	–	–	–	–
CC(=N)N1CCC(Oc2ccc(C(Cc3ccc4ccc(C(=N)N)cc4c3)C(=O)O)cc2)CC1.Cl.Cl (single isomer, unassigned; (+)) [Inventive Example 43, (+)-2-[4-[(1-acetimidoyl-4-piperidinyl)oxy]phenyl]-3-(7-amidino-2-naphthyl)propionic Acid Dihydrochloride]	0.18	13	> 400	–	–	–	–	–
Cl.Cl.N=C(N)c1ccc2sc(CC(CC(=O)O)c3ccc(O[C@H]4CCNC4)cc3)cc2c1 (stereo partly drawn) [Inventive Example 61, 4-(5-amidinobenzo[b]thien-2-yl)-3-[4-[((3S)-3-pyrrolidinyl)oxy]phenyl]butyric Acid Dihydrochloride]	–	–	–	1.40	1.28	1.21	1.09	–
Cl.Cl.N=C(N)c1ccc2cc(CC(C(=O)O)c3ccc(O[C@H]4CCNC4)cc3)[nH]c2c1 (single isomer, unassigned; (+)) [Inventive Example 48, Dihydrochloride]	–	360	50	–	–	–	–	–
CC(=N)N1CCC[C@H]1COc1ccc(C(Cc2cc3cc(C(=N)N)ccc3s2)C(=O)O)cc1.Cl.Cl (single isomer, unassigned; (+)) [Inventive Example 41]	0.32	–	–	–	–	–	–	–
CCn1c(CC(C(=O)O)c2ccc(O[C@H]3CCN(C(C)=N)C3)cc2)cc2ccc(C(=N)N)cc21 (stereo partly drawn) [Inventive Example 105, 2-[4-[((3S)-1-(acetimidoyl-3-pyrrolidinyl)oxy]phenyl]-3-(6-amidino-1-ethyl-2-indolyl)propionic Acid Dihydrochloride]	0.35	54	6.8	2.69	3.60	2.41	1.66	–
